# Measurements published in ChEMBL document CHEMBL1201862, “PubChem BioAssay data set” (2004).
# Activity calls are given as the source filed them.
# Key:
# [1] = inhibitors of Vif binding to APOBEC3G peptide, primary screen, biochemical, TR-FRET, GST-Vif 1-94, biotin-A3G peptide, dose response retest (AID 1117319); assay type: functional;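 note: TR-FRET signal of purified GST-Vif binding a biotinylated A3G peptide; inhibitors lower the FRET signal by blocking Vif and A3G binding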
# [2] = target: Peroxisome proliferator-activated receptor gamma/Nuclear receptor coactivator 2 (Homo sapiens, UniProt P37231); assay type: functional;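 note: agonist potency for raising coactivator recruitment to the receptor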
# [3] = off-target signal loss in HeLa-CEM21 co-culture – HeLa F-luc CTL cells, cherry-picked, counter-screen for HIV-1 Env fusion inhibitor project, dose response (AID 652040); assay type: functional, cell-based;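 note: potency for signal decrease marking cytotoxic or nonspecific inhibition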
# [4] = target: Peroxisome proliferator-activated receptor gamma/Nuclear receptor coactivator 1 (Homo sapiens, UniProt P37231); assay type: functional;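 note: agonist potency as compounds enhance coactivator SRC-1 recruitment to PPARgamma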
# [5] = target: Peroxisome proliferator-activated receptor gamma/Nuclear receptor coactivator 3 (Homo sapiens, UniProt P37231); assay type: functional;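 note: agonist potency for raising coactivator recruitment to the receptor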
# [6] = target: T1, Streptokinase A (Streptococcus pyogenes serotype M1, UniProt P10520); assay: S. pyogenes streptokinase expression inhibitors, potency, dose response, plasminogen activation absorbance, OD405 (AID 1914); assay type: functional, Streptococcus pyogenes M1 GAS;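 note: secreted streptokinase activity via plasminogen activation per viability signal from cell pellet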
# T1 sequence (P10520 whole entry): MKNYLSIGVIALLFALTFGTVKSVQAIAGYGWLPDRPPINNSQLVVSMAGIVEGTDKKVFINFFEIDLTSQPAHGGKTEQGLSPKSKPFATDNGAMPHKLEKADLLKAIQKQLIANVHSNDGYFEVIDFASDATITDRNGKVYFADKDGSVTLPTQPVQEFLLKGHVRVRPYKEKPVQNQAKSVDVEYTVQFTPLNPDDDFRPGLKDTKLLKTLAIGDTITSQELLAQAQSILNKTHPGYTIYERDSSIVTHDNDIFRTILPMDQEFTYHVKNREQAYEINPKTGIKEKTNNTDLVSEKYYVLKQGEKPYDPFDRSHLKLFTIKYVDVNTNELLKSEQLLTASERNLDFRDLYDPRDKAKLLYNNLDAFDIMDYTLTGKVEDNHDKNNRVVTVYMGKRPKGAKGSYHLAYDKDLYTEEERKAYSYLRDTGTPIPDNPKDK
# [7] = system: Streptococcus sp. 'group A'; assay: growth inhibition of control SK(-) GAS strain, dose response, counter-screen for streptokinase expression inhibitor project, luminescence, kanamycin, BacTiterGlo, confirmation (AID 1900); assay type: functional, organism-based
# [8] = target: Disintegrin and metalloproteinase domain-containing protein 17 (Homo sapiens, UniProt P78536); assay: ADAM17 protease inhibitors, dose response, counter-screen for ADAM10 exosite inhibitor project, biochemical, quenched FRET substrate (AID 743253)
# [9] = system: Streptococcus; assay: Group A Streptococcus viability loss, dose response, counter-screen for streptokinase expression inhibitor project, luminescence, BacTiterGlo (AID 1915); assay type: functional, organism-based;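 note: potency for reduction of bacterial viability or growth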
# [10] = inhibitors of intracellular T. cruzi replication, confirmation, NIH3T3 host cells, beta-gal luminescence (AID 2044); assay type: functional, cell-based;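 note: intracellular parasites grown in NIH/3T3 mouse fibroblasts as host cells; luminescent beta-galactosidase reporter signal from transgenic T. cruzi replicating inside host cells; inhibitors lower the luminescence signal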
# [11] = Luminescence Cell-Based Dose Retest to Confirm Inhibitors of Cancer Stem Cells. [Related pubchem assays (depositor defined):AID2717, AID2721]; assay type: functional; settings: Homo sapiens
# [12] = cytotoxicity toward NIH3T3 fibroblasts, dose response, counter-screen, cell-based, ATP luminescence, mouse fibroblasts (AID 2010); assay type: functional;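 note: cells exposed to compound for about 90 hours before reading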
# [13] = cytotoxicity in HPDE-C7 cells, cell-based, fluorescence, HTS (AID 430); assay type: functional; settings: Homo sapiens
# [14] = cytotoxicity in KRAS-transformed pancreatic duct cells, primary screen, cell-based, fluorescence, HTS (AID 431); assay type: functional; settings: Homo sapiens;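 note: cell line used: HPDE-C7K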
# [15] = target: T2, Calpain-2 catalytic subunit (Sus scrofa, UniProt P43367); assay: pig calpain II inhibitor potency, dose response, biochemical, fluorogenic peptide substrate (AID 1420); assay type: functional
# T2 sequence (P43367 whole entry): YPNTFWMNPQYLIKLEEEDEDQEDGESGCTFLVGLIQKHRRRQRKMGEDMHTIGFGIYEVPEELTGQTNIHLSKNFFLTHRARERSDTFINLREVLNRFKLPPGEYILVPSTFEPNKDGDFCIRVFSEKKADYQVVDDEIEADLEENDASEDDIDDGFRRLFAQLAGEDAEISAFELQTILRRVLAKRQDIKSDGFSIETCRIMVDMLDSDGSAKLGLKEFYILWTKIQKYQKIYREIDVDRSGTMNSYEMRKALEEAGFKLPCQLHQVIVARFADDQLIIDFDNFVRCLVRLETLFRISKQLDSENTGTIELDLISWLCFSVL
# [16] = Vero cell cytotoxicity, dose response, cytotoxicity control for Vif-APOBEC3G degradation inhibitor project, Vero cells (AID 1117358); assay type: functional; settings: Human immunodeficiency virus 1, Vero
# [17] = microbe, parasite or virus in culture; assay type: functional; settings: Mycobacterium tuberculosis
# [18] = target: Endoplasmic reticulum aminopeptidase 1 (Homo sapiens, UniProt Q9NZ08); assay: ERAP1 aminopeptidase inhibitors, dose response, biochemical, cherry-pick, set 2, plate reader (AID 743314)
# [19] = HEp-2 cell cytotoxicity, dose response, cytotoxicity control for RSV inhibitor project, HTS (AID 2410); assay type: functional; settings: human respiratory syncytial virus
# [20] = target: DNA dC->dU-editing enzyme APOBEC-3G (Homo sapiens, UniProt Q9HC16); assay: Dose Response confirmation of small molecule APOBEC3G DNA Deaminase Inhibitors via a fluorescence-based single-stranded DNA deaminase assay. [Related pubchem assays (depositor defined):AID493012, AID493028]; assay type: functional
# [21] = target: Glucose-6-phosphate 1-dehydrogenase (Homo sapiens, UniProt P11413); assay: human G6PD enzyme inhibitors, dose response, selectivity assay for P. falciparum G6PD inhibitor project, biochemical, fluorescence (AID 504792); assay type: functional
# [22] = cells; assay type: functional, cell-based
# [23] = cells; assay type: functional, cell-based; remark: listed apart in the source
# [24] = target: T3, Short transient receptor potential channel 4 (Mus musculus, UniProt Q9QUQ5); assay: mouse TRPC4 channel inhibitors, dose response, cell-based, HEK293 TRPC4/mu-opioid, Fluo-4 calcium (AID 434942); assay type: functional;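 note: potency of inhibitors blocking the TRPC4 calcium response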
# T3 sequence (Q9QUQ5 whole entry): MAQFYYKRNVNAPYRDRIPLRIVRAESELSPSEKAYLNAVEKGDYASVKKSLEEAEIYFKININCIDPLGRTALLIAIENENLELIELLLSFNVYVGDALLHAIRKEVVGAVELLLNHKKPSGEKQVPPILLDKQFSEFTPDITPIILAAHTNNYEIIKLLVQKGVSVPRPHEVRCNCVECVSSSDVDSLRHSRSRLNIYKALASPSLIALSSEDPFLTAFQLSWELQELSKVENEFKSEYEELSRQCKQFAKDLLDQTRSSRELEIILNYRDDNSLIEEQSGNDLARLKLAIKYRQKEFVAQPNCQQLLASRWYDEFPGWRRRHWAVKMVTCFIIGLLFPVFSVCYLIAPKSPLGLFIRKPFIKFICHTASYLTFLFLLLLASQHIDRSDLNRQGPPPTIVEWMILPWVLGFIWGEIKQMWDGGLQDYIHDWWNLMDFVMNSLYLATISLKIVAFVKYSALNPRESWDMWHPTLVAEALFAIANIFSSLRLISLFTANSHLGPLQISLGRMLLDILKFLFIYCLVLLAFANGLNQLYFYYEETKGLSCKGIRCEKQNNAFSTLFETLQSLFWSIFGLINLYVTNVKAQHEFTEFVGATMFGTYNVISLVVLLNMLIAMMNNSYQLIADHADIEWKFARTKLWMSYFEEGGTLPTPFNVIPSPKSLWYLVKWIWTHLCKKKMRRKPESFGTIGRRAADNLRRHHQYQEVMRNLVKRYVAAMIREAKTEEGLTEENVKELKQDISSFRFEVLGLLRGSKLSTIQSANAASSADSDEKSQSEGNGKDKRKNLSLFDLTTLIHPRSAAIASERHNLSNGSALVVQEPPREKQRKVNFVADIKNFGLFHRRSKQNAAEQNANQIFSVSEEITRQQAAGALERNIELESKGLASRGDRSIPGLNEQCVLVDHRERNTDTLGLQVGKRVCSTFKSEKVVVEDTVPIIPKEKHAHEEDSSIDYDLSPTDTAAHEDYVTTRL
# [25] = cells; assay type: functional
# [26] = target: T4, Mannose-6-phosphate isomerase (Homo sapiens, UniProt P34949); assay: human PMI inhibitors, high substrate, primary screen, biochemical, fluorescence intensity, high mannose 6-phosphate (AID 1220)
# T4 sequence (P34949 whole entry): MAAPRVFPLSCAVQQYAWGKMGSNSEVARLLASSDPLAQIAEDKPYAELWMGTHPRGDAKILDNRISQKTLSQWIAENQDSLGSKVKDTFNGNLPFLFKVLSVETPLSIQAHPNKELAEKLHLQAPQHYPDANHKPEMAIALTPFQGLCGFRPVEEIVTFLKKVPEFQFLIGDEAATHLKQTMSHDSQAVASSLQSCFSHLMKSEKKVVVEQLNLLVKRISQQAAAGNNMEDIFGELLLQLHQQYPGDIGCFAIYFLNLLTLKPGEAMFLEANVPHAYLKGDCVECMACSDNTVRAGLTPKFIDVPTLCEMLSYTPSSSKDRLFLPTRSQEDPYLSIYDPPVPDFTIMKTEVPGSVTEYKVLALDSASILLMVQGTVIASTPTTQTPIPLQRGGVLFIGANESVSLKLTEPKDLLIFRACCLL
# [27] = target: T5, Leucine aminopeptidase (Plasmodium falciparum 3D7, UniProt Q8IL11); assay: P. falciparum M17LAP inhibitors, primary screen, biochemical, fluorogenic H-Leu-NHMec substrate, 1536-well (AID 1619); assay type: functional
# T5 sequence (Q8IL11 whole entry): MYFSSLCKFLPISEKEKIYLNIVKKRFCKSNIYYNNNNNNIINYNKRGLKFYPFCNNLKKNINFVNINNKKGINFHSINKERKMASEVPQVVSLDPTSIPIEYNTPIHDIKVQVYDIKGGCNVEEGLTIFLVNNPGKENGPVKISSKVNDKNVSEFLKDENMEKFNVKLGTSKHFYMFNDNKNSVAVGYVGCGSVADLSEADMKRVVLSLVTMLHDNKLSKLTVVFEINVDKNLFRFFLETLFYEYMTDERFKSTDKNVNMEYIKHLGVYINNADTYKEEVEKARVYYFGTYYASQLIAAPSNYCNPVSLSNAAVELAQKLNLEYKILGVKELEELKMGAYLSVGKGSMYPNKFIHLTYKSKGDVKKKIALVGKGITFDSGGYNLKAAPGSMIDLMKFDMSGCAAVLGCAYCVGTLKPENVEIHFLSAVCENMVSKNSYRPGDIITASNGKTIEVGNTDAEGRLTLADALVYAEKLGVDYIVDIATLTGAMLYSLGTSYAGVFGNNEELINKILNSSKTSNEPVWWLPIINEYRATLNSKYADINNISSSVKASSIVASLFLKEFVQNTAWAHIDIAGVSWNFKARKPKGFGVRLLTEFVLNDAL
# Chain of Peroxisome proliferator-activated receptor gamma/Nuclear receptor coactivator 2 (P37231 whole entry, the tested form may be a part): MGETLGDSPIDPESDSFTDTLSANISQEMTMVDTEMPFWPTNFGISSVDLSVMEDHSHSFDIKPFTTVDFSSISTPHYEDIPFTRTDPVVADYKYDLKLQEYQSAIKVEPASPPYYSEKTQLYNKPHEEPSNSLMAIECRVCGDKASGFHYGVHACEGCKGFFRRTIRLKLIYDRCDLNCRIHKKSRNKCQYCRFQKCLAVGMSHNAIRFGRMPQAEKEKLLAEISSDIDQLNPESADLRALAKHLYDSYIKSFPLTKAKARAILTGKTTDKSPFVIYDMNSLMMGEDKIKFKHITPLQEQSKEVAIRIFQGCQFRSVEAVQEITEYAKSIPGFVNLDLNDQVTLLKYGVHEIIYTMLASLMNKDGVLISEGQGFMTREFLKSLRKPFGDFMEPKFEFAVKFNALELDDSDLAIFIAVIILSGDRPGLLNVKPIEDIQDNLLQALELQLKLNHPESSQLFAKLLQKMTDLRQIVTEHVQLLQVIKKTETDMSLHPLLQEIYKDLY
# Chain of Peroxisome proliferator-activated receptor gamma/Nuclear receptor coactivator 2 (Q15596 whole entry, further chain, the tested form may be a part): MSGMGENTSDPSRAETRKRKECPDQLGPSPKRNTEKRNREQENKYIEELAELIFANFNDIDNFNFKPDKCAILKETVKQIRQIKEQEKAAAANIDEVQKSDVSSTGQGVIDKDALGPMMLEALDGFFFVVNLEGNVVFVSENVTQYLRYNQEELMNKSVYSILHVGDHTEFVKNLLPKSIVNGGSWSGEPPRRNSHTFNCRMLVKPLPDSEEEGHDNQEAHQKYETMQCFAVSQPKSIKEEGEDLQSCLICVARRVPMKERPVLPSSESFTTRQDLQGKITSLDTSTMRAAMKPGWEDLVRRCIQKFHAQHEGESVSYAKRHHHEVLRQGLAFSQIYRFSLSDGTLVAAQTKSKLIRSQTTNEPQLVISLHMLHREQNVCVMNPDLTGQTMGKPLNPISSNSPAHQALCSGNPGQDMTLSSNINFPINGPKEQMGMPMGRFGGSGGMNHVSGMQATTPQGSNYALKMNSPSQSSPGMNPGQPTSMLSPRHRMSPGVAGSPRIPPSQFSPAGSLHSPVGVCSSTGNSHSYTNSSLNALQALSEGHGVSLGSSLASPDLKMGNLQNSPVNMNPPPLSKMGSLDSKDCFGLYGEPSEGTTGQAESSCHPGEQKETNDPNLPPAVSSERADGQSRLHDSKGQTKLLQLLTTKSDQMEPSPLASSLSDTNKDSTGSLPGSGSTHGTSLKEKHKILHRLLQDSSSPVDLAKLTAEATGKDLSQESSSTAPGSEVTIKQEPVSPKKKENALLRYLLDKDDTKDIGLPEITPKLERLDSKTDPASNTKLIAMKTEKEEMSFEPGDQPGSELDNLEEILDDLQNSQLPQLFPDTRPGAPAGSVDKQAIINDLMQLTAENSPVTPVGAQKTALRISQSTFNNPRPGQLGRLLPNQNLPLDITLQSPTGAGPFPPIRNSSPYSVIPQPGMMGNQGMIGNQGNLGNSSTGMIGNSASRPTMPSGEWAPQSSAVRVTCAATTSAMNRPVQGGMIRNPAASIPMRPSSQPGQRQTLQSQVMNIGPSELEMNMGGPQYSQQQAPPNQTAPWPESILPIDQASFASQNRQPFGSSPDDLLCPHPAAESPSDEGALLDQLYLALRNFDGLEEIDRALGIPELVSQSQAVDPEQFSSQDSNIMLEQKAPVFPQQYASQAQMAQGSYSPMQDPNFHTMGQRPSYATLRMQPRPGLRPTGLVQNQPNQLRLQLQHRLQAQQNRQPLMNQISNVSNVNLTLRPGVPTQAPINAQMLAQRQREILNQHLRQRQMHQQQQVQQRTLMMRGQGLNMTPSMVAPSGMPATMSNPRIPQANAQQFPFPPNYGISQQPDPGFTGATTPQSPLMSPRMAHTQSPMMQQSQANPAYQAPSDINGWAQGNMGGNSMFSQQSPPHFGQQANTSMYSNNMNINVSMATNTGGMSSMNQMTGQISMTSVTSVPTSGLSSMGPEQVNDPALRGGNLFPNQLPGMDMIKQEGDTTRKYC
# Chain of Peroxisome proliferator-activated receptor gamma/Nuclear receptor coactivator 3 (P37231 whole entry): as the sequence (P37231 whole entry, the tested form may be a part) above
# Chain of Peroxisome proliferator-activated receptor gamma/Nuclear receptor coactivator 3 (Q9Y6Q9 whole entry, further chain): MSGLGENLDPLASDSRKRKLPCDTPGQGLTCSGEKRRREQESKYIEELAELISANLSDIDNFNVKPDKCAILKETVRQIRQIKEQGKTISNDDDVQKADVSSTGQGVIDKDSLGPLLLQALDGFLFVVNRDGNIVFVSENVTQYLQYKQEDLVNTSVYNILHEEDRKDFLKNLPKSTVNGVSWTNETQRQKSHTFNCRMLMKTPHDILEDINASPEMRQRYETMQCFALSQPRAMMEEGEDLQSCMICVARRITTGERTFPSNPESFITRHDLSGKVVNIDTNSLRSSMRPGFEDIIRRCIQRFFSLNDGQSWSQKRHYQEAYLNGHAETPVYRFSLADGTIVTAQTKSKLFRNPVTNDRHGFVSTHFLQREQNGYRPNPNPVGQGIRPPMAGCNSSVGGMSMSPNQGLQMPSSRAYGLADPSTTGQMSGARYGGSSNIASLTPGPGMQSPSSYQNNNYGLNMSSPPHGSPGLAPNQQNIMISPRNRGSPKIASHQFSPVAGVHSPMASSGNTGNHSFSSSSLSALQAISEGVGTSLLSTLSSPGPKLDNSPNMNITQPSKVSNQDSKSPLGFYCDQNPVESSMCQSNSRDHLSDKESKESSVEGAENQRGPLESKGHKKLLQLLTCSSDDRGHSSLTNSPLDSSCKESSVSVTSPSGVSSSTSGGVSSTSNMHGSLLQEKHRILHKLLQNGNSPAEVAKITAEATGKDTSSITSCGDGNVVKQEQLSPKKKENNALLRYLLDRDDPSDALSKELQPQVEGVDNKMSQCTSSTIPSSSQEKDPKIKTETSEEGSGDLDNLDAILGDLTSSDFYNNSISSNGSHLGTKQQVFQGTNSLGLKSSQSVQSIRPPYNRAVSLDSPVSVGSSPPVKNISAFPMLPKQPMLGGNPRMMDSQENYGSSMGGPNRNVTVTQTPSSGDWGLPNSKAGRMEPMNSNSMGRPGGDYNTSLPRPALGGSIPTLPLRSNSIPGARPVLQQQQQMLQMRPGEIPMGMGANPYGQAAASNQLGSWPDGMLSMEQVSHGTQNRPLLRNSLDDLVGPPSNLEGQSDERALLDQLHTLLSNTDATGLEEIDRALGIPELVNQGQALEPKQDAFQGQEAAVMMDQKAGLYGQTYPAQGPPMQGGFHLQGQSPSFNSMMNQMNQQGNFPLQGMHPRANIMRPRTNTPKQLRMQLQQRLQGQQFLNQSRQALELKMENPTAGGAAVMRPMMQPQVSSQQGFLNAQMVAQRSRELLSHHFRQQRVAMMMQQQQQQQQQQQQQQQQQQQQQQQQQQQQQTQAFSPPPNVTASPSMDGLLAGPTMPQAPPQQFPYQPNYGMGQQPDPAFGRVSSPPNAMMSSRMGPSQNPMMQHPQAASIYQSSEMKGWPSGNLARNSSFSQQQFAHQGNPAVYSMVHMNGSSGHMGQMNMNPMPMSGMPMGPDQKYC
# Chain of Endoplasmic reticulum aminopeptidase 1 (Q9NZ08 whole entry): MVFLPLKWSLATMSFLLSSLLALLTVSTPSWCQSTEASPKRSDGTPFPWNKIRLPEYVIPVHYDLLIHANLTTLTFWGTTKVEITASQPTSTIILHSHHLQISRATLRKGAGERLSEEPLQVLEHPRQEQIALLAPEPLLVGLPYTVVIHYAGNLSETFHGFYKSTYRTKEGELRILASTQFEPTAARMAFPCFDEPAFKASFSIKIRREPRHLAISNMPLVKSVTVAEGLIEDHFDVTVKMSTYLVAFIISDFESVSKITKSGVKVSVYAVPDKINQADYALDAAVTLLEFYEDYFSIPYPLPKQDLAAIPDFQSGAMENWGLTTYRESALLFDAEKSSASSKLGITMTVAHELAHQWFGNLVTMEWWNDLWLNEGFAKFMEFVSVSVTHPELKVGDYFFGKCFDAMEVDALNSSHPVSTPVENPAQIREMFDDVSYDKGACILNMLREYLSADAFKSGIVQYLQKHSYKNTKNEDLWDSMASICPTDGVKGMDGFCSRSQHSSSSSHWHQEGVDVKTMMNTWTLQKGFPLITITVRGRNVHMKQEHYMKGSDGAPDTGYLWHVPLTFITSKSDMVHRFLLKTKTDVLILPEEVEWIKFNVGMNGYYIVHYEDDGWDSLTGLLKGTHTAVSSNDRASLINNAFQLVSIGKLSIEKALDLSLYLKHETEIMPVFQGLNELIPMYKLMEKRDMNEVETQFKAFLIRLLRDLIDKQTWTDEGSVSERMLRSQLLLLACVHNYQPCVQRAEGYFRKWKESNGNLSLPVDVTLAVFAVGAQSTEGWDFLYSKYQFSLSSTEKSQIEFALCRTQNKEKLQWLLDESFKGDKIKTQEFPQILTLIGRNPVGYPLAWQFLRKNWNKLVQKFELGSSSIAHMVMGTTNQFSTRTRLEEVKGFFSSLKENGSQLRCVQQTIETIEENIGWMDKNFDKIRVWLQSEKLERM
compound,measurement,setting,value
CCOC(=O)N1CCC(N2C(=O)c3ccccc3C2Nc2ccccc2)CC1 (stereo not given),IC50,[1],> 100 µM (active)
COc1ccc(OCC(=O)Nc2cc(-c3nn(C)c(=O)c4ccccc34)ccc2OC)cc1,EC50,[2],31.2 µM (not active)
same,AC50,[3],30.3 µM (active)
same,EC50,[4],62.6 µM (not active)
same,EC50,[5],76.6 µM (not active)
O=[N+]([O-])c1ccc(S(=O)(=O)Nc2ccc(-c3csc(-c4ccccc4)n3)cc2)cc1,EC50,[6],> 150 µM (not active)
same,EC50,[7],3.77 µM (active)
same,IC50,[8],> 69.5 µM (inactive)
same,EC50,[9],8.29 µM (active)
same,EC50,[10],0.118 µM (active)
same,AC50,[11],2.33 µM (active)
same,EC50,[12],> 60 µM (not active)
COc1ccc(CCN2C(=O)c3cccnc3C2=O)cc1OC,IC50,[1],> 100 µM (active)
CCOC(=O)C1=C(C)N=C(C)/C(=C(/O)OC)C1c1cccc(Cl)c1Cl (stereo not given),EC50,[13],8.98 µM (active)
same,EC50,[14],10.4 µM (active)
CC(C)(C)NC(=O)c1ccc(Sc2ccccc2)c([N+](=O)[O-])c1,IC50,[15],11.9 µM (not active)
Cc1ccc(CN(C(=O)Cn2nnc3ccccc32)C(C(=O)NCc2ccco2)c2cccs2)cc1 (stereo not given),CC50,[16],> 40 µM (active)
COC(=O)c1cnn2c(C)c(Cc3cccc(F)c3)c(C)nc12,CC50,[16],> 40 µM (active)
COCCn1c(C)cc(C(=O)COC(=O)CNC(=O)c2ccccc2)c1C,IC50,[15],> 50 µM (not active)
CC(C)(C)c1ccc(Cn2nnc3c(O)nc(C4CCCN(C(=O)Cc5cccs5)C4)nc32)cc1 (stereo not given),EC50,[13],15.6 µM (active)
same,CC50,[17],> 40 µM (active)
same,EC50,[14],18.4 µM (active)
COC(=O)c1ccccc1NC(=O)c1cc(-c2ccc(O)cc2)on1,EC50,[2],31.5 µM (not active)
same,EC50,[4],24.9 µM (not active)
same,EC50,[5],33.6 µM (not active)
CCN1[C@@H]2c3ccc(/C=C/c4ccccc4)c(=O)n3C[C@H]1[C@H](CO)[C@H]2C(=O)N1CCOCC1,AC50,[18],6.11 µM (active)
CCOC(=O)c1c2c(c(=S)n(-c3ccccc3)c1N)CCC2,EC50,[13],10.4 µM (active)
same,IC50,[15],7.26 µM (not active)
same,EC50,[14],9.88 µM (active)
same,CC50,[19],26.4 µM (active)
CCC(C)(C)c1nnc(NC(=O)C2CCN(C(=O)c3ccco3)CC2)s1,IC50,[20],25.9 µM (active)
same,IC50,[21],> 80 µM (inactive)
same,EC50,[22],> 350 µM (not active)
same,EC50,[23],> 350 µM (not active)
CN1[C@H](C(=O)NC2CCC2)[C@@H](CO)[C@@H]2Cn3c(ccc(/C=C/c4ccccc4)c3=O)[C@@H]21,AC50,[18],18 µM (active)
O=C(c1ccc(S(=O)(=O)N2CCOCC2)cc1)N1CCN(c2cccc(Cl)c2)CC1,IC50,[1],> 100 µM (active)
O=c1c2ccccc2[nH]c(=S)n1CCN1CCN(Cc2ccccc2)CC1,EC50,[24],4.73 µM (active)
Cc1oc(-c2ccoc2)nc1CN(Cc1ccccc1)CC1CC1,EC50,[24],4.22 µM (active)
N#Cc1cn(CCOc2ccccc2F)c2ccccc12,CC50,[16],> 40 µM (active)
CCn1c(=N)n(CC(=O)c2ccc(Br)s2)c2ccccc21,EC50,[24],13.3 µM (active)
Oc1ccc(F)c2cccnc12,IC50,[25],4.21 µM (active)
same,IC50,[26],7.42 µM (active)
CC(C)c1ccc(C(=O)CSc2nc[nH]n2)cc1,IC50,[27],33 µM (active)
same,IC50,[26],9.69 µM (active)
O=C(COC(=O)Cn1cnc2ccccc2c1=O)Nc1ccccc1Sc1ccc(Cl)cc1,EC50,[24],1.88 µM (active)
